Test results published in patent US8138191B2, “Inhibitor compounds and cancer treatment methods” (Critical Outcome Technologies Inc., priority 2007, dated 2012).
Values belong to the compound of their own block, whether it stands above or below them.

How the values were obtained:
CYP2C9 = CYP2C9 (Homo sapiens, UniProt P11712); assay: CYP2C9 Inhibition (HLM, diclofenac substrate)
CYP2C8 = target: T1, CYP2C8 (Homo sapiens, UniProt P10632); assay: CYP2C8 Inhibition (HLM, paclitaxel substrate)
T1 sequence (P10632 1-490): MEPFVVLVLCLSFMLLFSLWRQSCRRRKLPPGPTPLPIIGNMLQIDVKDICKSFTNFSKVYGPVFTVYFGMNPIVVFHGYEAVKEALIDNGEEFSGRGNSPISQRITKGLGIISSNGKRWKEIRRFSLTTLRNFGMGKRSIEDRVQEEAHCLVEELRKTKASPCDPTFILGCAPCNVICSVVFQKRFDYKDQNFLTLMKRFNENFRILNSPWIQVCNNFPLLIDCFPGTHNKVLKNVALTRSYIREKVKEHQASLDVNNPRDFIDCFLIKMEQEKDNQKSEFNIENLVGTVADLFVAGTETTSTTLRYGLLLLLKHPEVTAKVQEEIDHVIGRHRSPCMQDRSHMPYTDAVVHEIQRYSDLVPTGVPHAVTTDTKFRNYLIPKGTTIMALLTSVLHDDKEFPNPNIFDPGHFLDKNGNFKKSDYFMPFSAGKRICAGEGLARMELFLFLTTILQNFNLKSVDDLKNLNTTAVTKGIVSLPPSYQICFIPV

CYP2C19 = CYP2C19 (Homo sapiens, UniProt P33261); assay: CYP2C19 Inhibition (HLM, omeprazole substrate)
Sequence of CYP2C19 (P33261 whole entry): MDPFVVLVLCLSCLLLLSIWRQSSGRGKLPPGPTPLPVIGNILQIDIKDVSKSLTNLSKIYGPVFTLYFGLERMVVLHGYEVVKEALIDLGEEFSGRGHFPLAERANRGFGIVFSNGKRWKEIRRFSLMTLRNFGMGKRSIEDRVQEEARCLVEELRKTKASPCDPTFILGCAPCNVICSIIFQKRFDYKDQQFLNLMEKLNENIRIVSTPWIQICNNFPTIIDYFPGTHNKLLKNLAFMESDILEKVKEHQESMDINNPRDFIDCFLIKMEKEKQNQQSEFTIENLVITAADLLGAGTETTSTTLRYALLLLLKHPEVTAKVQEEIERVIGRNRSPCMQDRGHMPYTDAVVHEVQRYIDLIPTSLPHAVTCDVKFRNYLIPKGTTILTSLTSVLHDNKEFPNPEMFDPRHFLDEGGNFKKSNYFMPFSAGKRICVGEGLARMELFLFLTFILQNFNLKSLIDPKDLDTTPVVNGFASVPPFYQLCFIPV

Sequence of CYP2C9 (P11712 whole entry): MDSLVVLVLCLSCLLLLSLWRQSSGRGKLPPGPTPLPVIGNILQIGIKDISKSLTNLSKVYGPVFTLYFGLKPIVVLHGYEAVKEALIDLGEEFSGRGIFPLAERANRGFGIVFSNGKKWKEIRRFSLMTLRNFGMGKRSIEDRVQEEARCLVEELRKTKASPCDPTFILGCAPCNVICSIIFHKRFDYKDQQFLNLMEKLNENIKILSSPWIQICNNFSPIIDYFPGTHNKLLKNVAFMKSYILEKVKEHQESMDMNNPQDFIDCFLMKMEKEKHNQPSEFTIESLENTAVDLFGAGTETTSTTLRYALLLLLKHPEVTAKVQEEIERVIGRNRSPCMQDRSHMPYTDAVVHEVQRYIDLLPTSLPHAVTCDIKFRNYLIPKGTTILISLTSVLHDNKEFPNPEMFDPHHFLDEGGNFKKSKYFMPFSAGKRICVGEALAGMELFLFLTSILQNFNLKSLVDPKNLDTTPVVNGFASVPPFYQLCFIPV

SMILES: Nc1ccc(S(=O)(=O)Nc2ccnn2-c2ccccc2)cc1 [Sulfaphenazole]
nH (CYP2C9): 1.1

nH (CYP2C8): 1.2
SMILES: COC(=O)C1=C(C)NC(C)=C(C(=O)OCCN(C)Cc2ccccc2)C1c1cccc([N+](=O)[O-])c1 (stereo not drawn) [Nicardipine]

nH (CYP2C19): 1.1
SMILES: CCN(CC)CC#CCOC(=O)C(O)(c1ccccc1)C1CCCCC1 (stereo not drawn) [Oxybutynin]
